Laboratory results as given in US8420817B2, “Tricyclic N-heteroaryl-carboxamide derivatives, preparation and therapeutic use thereof” (Sanofi, priority 2007, dated 2013).

Tests used:
TRPV1 receptor = molecular target: T1, TRPV1 receptor (Rattus norvegicus, UniProt O35433); assay: Inhibition of the current induced by capsaicin on rat DRGs (whole-cell patch-clamp); assay type: cell-based; details: DRG neuron; compound at 10 nM; inhibition of the control capsaicin response; rat DRG neurons
T1 construct: The neurons of the DRG naturally express the TRPV1 receptor; endogenous in cells; host or cells: primary culture of newborn rat dorsal root ganglion neurons
T1 sequence (O35433 whole entry): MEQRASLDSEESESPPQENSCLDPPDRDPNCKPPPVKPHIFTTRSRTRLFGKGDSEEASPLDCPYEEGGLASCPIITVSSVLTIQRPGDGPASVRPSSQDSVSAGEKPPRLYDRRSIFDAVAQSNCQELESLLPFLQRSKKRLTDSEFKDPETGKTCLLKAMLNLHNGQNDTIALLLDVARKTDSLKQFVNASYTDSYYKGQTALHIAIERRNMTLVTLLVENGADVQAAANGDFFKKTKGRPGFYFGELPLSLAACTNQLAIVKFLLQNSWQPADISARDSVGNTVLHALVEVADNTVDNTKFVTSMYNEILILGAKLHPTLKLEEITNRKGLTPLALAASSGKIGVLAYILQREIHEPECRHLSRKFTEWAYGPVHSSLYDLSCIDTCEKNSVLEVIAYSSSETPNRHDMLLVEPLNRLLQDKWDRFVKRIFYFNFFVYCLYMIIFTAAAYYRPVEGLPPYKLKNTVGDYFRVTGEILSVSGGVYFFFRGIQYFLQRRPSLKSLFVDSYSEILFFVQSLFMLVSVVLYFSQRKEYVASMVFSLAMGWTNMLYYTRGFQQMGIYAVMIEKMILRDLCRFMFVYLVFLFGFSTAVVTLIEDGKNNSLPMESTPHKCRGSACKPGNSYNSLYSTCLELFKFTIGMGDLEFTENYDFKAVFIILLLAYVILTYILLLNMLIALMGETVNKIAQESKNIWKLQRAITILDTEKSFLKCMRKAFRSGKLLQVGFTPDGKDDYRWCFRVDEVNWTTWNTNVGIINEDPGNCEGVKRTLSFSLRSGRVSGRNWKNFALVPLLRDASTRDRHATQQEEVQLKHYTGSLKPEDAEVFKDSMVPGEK
Procedure: Test for Inhibition of the Current Induced by Capsaicin on Rat DRGs
• Primary culture of rat dorsal root ganglion (DRG) cells:
The neurons of the DRG naturally express the TRPV1 receptor.
Newborn rat DRG primary cultures are prepared from 1-day-old rat pups. Briefly, after dissection, the ganglia are trypsinized and the cells are mechanically dissociated by controlled trituration. The cells are resuspended in an Eagle's basal culture medium containing 10% of fetal calf serum, 25 mM KCl, 2 mM glutamine, 100 μg/ml gentamicin and 50 ng/ml of NGF, and then deposited onto laminin-coated glass cover slips (0.25×10^6 cells per cover slip) which are then placed in 12-well Corning dishes. The cells are incubated at 37° C. in a humidified atmosphere containing 5% CO2 and 95% air. […]
The measuring chambers (volume 800 μl) containing the cell preparation are placed on the platform of an inverted microscope (Olympus IMT2) equipped with Hoffman optics (Modulation Contrast, New York), and observed at the magnification of 400×. […] The overall currents (membrane potential fixed at −60 mV) are recorded with an Axopatch 1D amplifier (Axon Instruments, Foster City, Calif.), connected to a PC controlled by Pclamp8 software (Axon Instruments). The current traces are recorded on paper and simultaneously digitized (sampling frequency 15 to […]) and acquired on the hard drive of the PC. […]

TRPV1 receptors = molecular target: T2, TRPV1 receptors (Mus musculus, UniProt Q704Y3); assay: Pain induced by intraplantar administration of capsaicin in mice; assay type: in vivo; details: 30 mg/kg orally 120 minutes before intraplantar capsaicin, n=10
T2 construct: from tissue; host or cells: living mice, hind paw (in vivo behavioural test)
T2 sequence (Q704Y3 whole entry): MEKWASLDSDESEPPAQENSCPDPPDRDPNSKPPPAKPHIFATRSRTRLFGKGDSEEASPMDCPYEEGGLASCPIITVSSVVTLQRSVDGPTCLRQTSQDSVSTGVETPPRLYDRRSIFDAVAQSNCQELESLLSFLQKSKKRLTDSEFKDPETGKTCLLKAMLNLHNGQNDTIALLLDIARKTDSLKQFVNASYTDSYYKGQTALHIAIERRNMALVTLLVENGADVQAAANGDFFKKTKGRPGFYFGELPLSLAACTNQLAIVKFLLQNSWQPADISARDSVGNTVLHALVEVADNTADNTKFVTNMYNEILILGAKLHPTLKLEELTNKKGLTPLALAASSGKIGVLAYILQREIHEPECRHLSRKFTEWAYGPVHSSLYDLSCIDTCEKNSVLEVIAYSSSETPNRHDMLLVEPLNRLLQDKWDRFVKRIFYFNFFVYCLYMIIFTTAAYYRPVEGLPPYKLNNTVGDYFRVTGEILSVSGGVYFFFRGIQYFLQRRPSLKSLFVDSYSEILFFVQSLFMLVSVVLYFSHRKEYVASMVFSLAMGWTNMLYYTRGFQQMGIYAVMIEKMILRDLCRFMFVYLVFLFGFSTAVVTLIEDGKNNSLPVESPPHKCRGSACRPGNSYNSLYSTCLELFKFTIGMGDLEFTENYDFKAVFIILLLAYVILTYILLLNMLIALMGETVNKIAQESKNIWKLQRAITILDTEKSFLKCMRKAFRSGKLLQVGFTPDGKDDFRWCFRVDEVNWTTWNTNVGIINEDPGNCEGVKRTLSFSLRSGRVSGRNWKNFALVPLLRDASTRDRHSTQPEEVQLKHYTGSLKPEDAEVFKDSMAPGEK
Procedure: Pain Induced by Intraplantar Administration of Capsaicin in Mice
The intraplantar injection of capsaicin in mice rapidly produces a short-duration nociceptif behavior which is manifested in instances of licking, chewing and flexing of the treated paw. These nociceptive responses are probably linked to activation of the local TRPV1 receptors by the capsaicin.
(E)-capsaicin is initially diluted at 3 mg/ml in DMSO, then diluted again, for its final use, at 1.5 μg/20 μl in physiological saline. Administration of solvent has no effect at all on the behavior of the mouse. The capsaicin is injected into one of the hind paws of the animal, at the level of the upper face.
The compounds to be tested are administered orally 120 minutes prior to injection of capsaicin. […] The nociceptif behavior of the animals is then immediately evaluated by the person carrying out the experiment, and the duration of the behavioral manifestations induced by the capsaicin is recorded with a stop watch for a time of 2 minutes (licking and chewing, total or partial flexing of the injected paw).
For each compound an inhibition is determined which corresponds to the mean of the nociceptive responses induced by the capsaicin in response to a dose of test product (expressed in mg/kg) administered orally, on a sample of a specific number of mice (n).

SMILES | inhibition at 0.01 µM (TRPV1 receptor) | melting point | % inhibition of nociceptive responses induced by capsaicin (TRPV1 receptors)
O=C(Nc1cnc2c(c1)nc1n2CCC1)c1cc2cc(F)ccc2n1Cc1cccc(F)c1 [Compound 1, N-(7,8-Dihydro-6H-pyrrolo[2′,1′:2,3]imidazo[4,5-b]pyridin-3-yl)-5-fluoro-1-(3-fluorobenzyl)-1H-indole-2-carboxamide] | 69% | 227 to 229 °C | –
O=C(Nc1cnc2c(c1)nc1n2CCC1O)c1cc2cc(C(F)(F)F)ccc2n1Cc1cccc(F)c1 (racemic) [Compound 29, N-(6-Hydroxy-7,8-dihydro-6H-pyrrolo[2′,1′:2,3]imidazo[4,5-b]pyridin-3-yl)-5-trifluoromethyl-1-(3-fluorobenzyl)-1H-indole-2-carboxamide] | – | 254 to 255 °C | 63% (+/−11%)
